Literature values as cited in patent publication US12097177B2, “Therapeutic method for cat with chronic kidney disease” (Toray Industries, Inc., priority 2021, dated 2024).
Where a name gives a salt, the structure may show the parent alone. Read-outs that look alike come from different tables or passages of the source.

Legend:
[1] = test system: feline CKD; conditions: in vivo; cited from earlier work
[2] = test system: feline CKD; conditions: in vivo; cited from earlier work; remark: listed apart in the source
[3] = test system: feline CKD; conditions: in vivo; cited from earlier work; remark: listed apart in the source
[4] = rats; cited from earlier work
[5] = humans; cited from earlier work

SMILES: CN1N=C2CCN(C(=O)[C@@H](COCc3ccccc3)NC(=O)C(C)(C)N)C[C@@]2(Cc2ccccc2)C1=O [capromorelin]
- body weight loss [1]: inhibit body weight loss
- overall survival rate or observed survival rate [1]: no improvement in the overall survival rate or the observed survival rate of feline CKD has been demonstrated

SMILES: CCOC(=O)[C@H](CCc1ccccc1)N[C@H]1CCc2ccccc2N(CC(=O)O)C1=O [Benazepril hydrochloride, benazepril hydrochloride]
- progression of feline CKD stage [2]: has not been found to inhibit progression of feline CKD stage
- proteinuria [2]: lower the severity of proteinuria
- serum creatinine [2]: inhibit elevation in serum creatinine

SMILES: CCCc1nc2c(C)cc(-c3nc4ccccc4n3C)cc2n1Cc1ccc(-c2ccccc2C(=O)O)cc1 [telmisartan]
- proteinuria [3]: improve proteinuria of feline CKD

SMILES: CC#CC[C@H](C)[C@H](O)/C=C/[C@@H]1[C@H]2c3cccc(CCCC(=O)[O-])c3O[C@H]2C[C@H]1O.[Na+] (single isomer, unassigned) [BPS-314d]
- AUC of plasma BPS-314d when BPS is administered (fraction) [4]: ¼
- Cmax of plasma BPS-314d when BPS is administered (fraction) [4]: ¼
- AUC of plasma BPS-314d when BPS is administered (fraction) [5]: ¼
- Cmax of plasma BPS-314d when BPS is administered (fraction) [5]: ¼
